Assay results published in patent US20180303807A1, “ANDROGEN RECEPTOR LIGANDS” (DUKE UNIVERSITY, priority 2015, published 2018).
Substitutions are numbered along the chain they refer to.

Tests used:
Type in all cases: cell-based
[1] = target: T1, AR (Homo sapiens, UniProt P10275); experiment: Reporter gene assay, AR transcriptional (MMTV-Luc) in CV1 cells; details: pcDNA-AR + MMTV-Luc, 0.1 nM R1881 plus test compound, 24 hrs, read-out: B1 = AR transcriptional IC50 (μM) in CV1 cells
T1 construct: expressed in transfected cells; host or cells: CV1 cells
T1 sequence (P10275 1-920): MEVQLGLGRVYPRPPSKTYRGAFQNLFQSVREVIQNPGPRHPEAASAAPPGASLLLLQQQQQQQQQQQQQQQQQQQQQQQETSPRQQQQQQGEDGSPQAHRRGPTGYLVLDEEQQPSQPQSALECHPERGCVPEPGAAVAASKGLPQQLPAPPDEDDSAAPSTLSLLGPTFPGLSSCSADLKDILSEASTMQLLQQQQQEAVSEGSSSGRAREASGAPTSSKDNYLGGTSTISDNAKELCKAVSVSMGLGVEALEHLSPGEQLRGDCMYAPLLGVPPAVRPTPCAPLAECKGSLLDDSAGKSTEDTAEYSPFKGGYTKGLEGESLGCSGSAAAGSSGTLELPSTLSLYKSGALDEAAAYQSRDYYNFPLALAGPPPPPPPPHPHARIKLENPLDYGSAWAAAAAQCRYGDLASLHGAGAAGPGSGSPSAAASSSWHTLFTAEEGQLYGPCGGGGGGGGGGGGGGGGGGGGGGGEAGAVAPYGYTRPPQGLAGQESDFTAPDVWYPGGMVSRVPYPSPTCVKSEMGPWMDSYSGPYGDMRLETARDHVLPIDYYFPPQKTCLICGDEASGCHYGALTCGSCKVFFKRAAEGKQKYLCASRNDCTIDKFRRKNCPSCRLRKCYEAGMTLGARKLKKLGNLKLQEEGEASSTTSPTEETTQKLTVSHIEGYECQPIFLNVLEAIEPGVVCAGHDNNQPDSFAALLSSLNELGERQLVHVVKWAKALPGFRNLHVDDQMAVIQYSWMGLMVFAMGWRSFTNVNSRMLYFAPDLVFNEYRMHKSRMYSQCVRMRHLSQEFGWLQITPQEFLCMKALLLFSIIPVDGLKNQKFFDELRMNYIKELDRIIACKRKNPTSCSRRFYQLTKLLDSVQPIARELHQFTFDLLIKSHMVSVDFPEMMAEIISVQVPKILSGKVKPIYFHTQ
Method in brief: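 CV1 cells transiently co-transfected with human AR, MMTV-Luc reporter and Renilla-Luc (transfection efficiency and toxicity read-out), then stimulated 24 h with 0.1 nM R1881 plus increasing test compound concentrations. Firefly and Renilla luciferase quantified by dual-luciferase assay; IC50 derived from concentration-response.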

[2] = target: T2, AR (Homo sapiens, UniProt P10275, T878A); experiment: In Cell Western AR degradation assay in LNCaP cells; details: 18 hrs, greater than 50% degradation at 10 μM (method says 20 μM)
T2 construct: endogenous in cells; host or cells: LNCaP cells
T2 sequence (P10275 1-920 T878A): T1 sequence (P10275 1-920) with T878A
Procedure: In Cell Western (AR degradation Assay, Table 2, B10). LNCaP cells were plated in 96-well clear bottom black plates (20K cells/well) in RPMI supplemented with 8% CFS. Following 48 hr incubation, cells were treated with hormone (20 μM test compound) for 18 hrs. Cells were fixed with formaldehyde (3.7%) and permeabilized using PBS (0.1% TRITON X-100). Cells were incubated with anti-AR antibody (N20, 1:2000), washed with PBS (0.1% Tween), and stained with 2nd antibody (Biotium CF770 goat anti-rabbit, 1:2000). AR protein expression was assessed using the LI-COR Odyssey imaging system. DRAQ5 (DNA stain, 1:10,000, Thermo Scientific) was used to normalize AR protein expression.
(§1) For B4-B7, scoring system is based on the relative AR target gene agonist/antagonist activity of test compounds when compared to benchmark compounds enzalutamide or bicalutamide. […] The lack of agonist activity is desirable for therapies intended to treat CRPC. For B4 and B6, a score of 1 indicates less agonism (highly desired activity) than benchmark compound enzalutamide, a score of 2 indicates equal agonism to enzalutamide (desirable), a score of 3 indicates agonism between enzalutamide and bicalutamide (less desirable activity), a score of 4 indicates equal agonism to bicalutamide (liability), and a score of 5 indicates higher agonism than bicalutamide (liability). For B5 and B7 a score of 1 indicates higher antagonist efficacy (highly desired activity) than benchmark compound enzalutamide, a score of 2 indicates equal antagonist efficacy to enzalutamide (desirable), a score of 3 indicates antagonist efficacy between enzalutamide and bicalutamide (less desirable activity), a score of 4 indicates antagonist efficacy equal to bicalutamide (liability), and a score of 5 indicates antagonist efficacy worse than bicalutamide (liability) For B9, Compounds that degrade AR (greater than 50% degradation at 10 μM) are indicated.

[3] = test system: AR; experiment: Real-time PCR of AR target gene transcription in LNCaP-AR (AR overexpressing) cells, CRPC model; details: benchmark compounds, AR overexpressing LNCaP cells
Procedure: Real-Time PCR (CRPC model of AR overexpressing prostate cancer cells, Table 2, B4-B7). LNCaP-AR (AR overexpressing cells) cells were seeded in 12-well plates in RPMI 1640 (8% charcoal-stripped fetal calf serum (CFS)). […] AR target gene transcription (PSA, NKX3.1, FKBP5) was assessed by realtime PCR.
as §1

| Compound | IC50 [1] | B9 = AR degradation in LNCaP cells (In-Cell Western) [2] | agonist activity in AR overexpressing LNCaP cells (model of CRPC) [3] |
| --- | --- | --- | --- |
| CC1(C)CC(=O)C2=C(C1)Nc1ccc3ncccc3c1C2c1ccsc1 (stereo not drawn) [Compound A69] | 6.1 µM | Degrader (Compounds that degrade AR (greater than 50% degradation at 10 μM) are indicated) | – |
| CC1(C)CC(=O)C2=C(C1)Nc1ccc3ncccc3c1C2c1ccc(C#N)c(F)c1 (stereo not drawn) [Compound A72] | 7.7 µM | Degrader (Compounds that degrade AR (greater than 50% degradation at 10 μM) are indicated) | – |
| CC1(C)CC(=O)C2=C(C1)Nc1ccc3ncccc3c1C2c1ccc(F)c(Br)c1 (stereo not drawn) [Compound A74] | 8.6 µM | Degrader (Compounds that degrade AR (greater than 50% degradation at 10 μM) are indicated) | – |
| CC1(C)CC(=O)C2=C(C1)Nc1ccc3ncccc3c1C2c1ccc(Cl)c([N+](=O)[O-])c1 (stereo not drawn) [Compound A75] | > 10 µM | Degrader (Compounds that degrade AR (greater than 50% degradation at 10 μM) are indicated) | – |
| CC1(C)CC(=O)C2=C(C1)Nc1ccc3ncccc3c1C2c1cc(Br)c(Br)s1 (stereo not drawn) [Compound A76] | 2.2 µM | Degrader (Compounds that degrade AR (greater than 50% degradation at 10 μM) are indicated) | – |
| Cn1ncc2ccc3c(c21)C(c1ccc(F)c(F)c1)C1=C(CC(C)(C)CC1=O)N3 (stereo not drawn) [Compound A78] | > 10 µM | Degrader (Compounds that degrade AR (greater than 50% degradation at 10 μM) are indicated) | – |
| CC1(C)CC(=O)C2=C(C1)Nc1ccc3c(c1C2c1ccc(Cl)s1)OCO3 (stereo not drawn) [Compound A107] | 0.9 µM | Degrader (Compounds that degrade AR (greater than 50% degradation at 10 μM) are indicated) | – |
| CC1(C)CC(=O)C2=C(C1)Nc1ccc3c(c1C2c1ccc(Br)s1)OCO3 (stereo not drawn) [Compound A111] | 1.4 µM | Degrader (Compounds that degrade AR (greater than 50% degradation at 10 μM) are indicated) | – |
| Cn1ncc2ccc3c(c21)C(c1ccc(Br)s1)C1=C(CC(C)(C)CC1=O)N3 (stereo not drawn) [Compound A113] | 5.1 µM | Degrader (Compounds that degrade AR (greater than 50% degradation at 10 μM) are indicated) | – |
| Cc1ccsc1C1C2=C(CC(C)(C)CC2=O)Nc2ccc3ncccc3c21 (stereo not drawn) [Compound A114] | 1.1 µM | Degrader (Compounds that degrade AR (greater than 50% degradation at 10 μM) are indicated) | – |
| CNC(=O)c1ccc(N2C(=S)N(c3ccc(C#N)c(C(F)(F)F)c3)C(=O)C2(C)C)cc1F [Enzalutamide, enzalutamide, reference compound] | – | – | does not possess agonist activity |

The next lines start with results.

| IC50 [1] | Compound | B9 = AR degradation in LNCaP cells (In-Cell Western) [2] | agonist activity in AR overexpressing LNCaP cells (model of CRPC) [3] |
| --- | --- | --- | --- |
| > 10 µM | CC1(C)CC(=O)C2=C(C1)Nc1ccc3ncccc3c1C2c1cccc(C(F)(F)F)c1 (stereo not drawn) [Compound A70] | Degrader (Compounds that degrade AR (greater than 50% degradation at 10 μM) are indicated) | – |
| 6.9 µM | CC1(C)CC(=O)C2=C(C1)Nc1ccc3ncccc3c1C2c1ccc(Cl)nc1 (stereo not drawn) [Compound A71] | Degrader (Compounds that degrade AR (greater than 50% degradation at 10 μM) are indicated) | – |
| 4.7 µM | Cn1ncc2ccc3c(c21)C(c1ccc(Cl)s1)C1=C(CC(C)(C)CC1=O)N3 (stereo not drawn) [Compound A109] | Degrader (Compounds that degrade AR (greater than 50% degradation at 10 μM) are indicated) | – |
| > 10 µM | CC1(C)CC(=O)C2=C(C1)Nc1ccc3cn[nH]c3c1C2c1ccc(Br)s1 (stereo not drawn) [Compound A110] | Degrader (Compounds that degrade AR (greater than 50% degradation at 10 μM) are indicated) | – |
| > 10 µM | Cc1ccsc1C1C2=C(CC(C)(C)CC2=O)Nc2cc(N3CCCC3)ccc21 (stereo not drawn) [Compound A116] | Degrader (Compounds that degrade AR (greater than 50% degradation at 10 μM) are indicated) | – |
| 2.3 µM | Cc1ccsc1C1C2=C(CC(C)(C)CC2=O)Nc2ccc3ccccc3c21 (stereo not drawn) [Compound A117] | Degrader (Compounds that degrade AR (greater than 50% degradation at 10 μM) are indicated) | – |
